Our source for the TGI values is PubChem BioAssay (NCI).

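Exposure lasted 48 hours, with cells grown in 96-well plates and compounds tested at five concentrations. TGI: total growth inhibition.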

Holding throughout (assay): inhibition of tumour cell growth, NCI panel, 48 h
The test system of test [1] is CCRF-CEM leukemia.
For test [2], the system named is HCT-15 colon.
Test [3] has as its system HOP-62 NSCLC.
Test [4] deals with HS 578T breast.
In test [5] the test system is MCF7 breast.
For test [6], the system named is MOLT-4 leukemia.
Test [7] has as its system NCI-H226 lung.
Test [8] has as its system NCI-H23 lung.
In test [9] the test system is PC-3 prostate.
Test [10] concerns SF-295 CNS.
Test [11] concerns SK-MEL-2 melanoma.
Test [12] deals with SK-MEL-28 melanoma.
The test system of test [13] is SN12C renal.
In test [14] the test system is SNB-75 CNS.
For test [15], the system named is SR leukemia.
The test system of test [16] is SW-620 colon.
In test [17] the test system is UACC-257 melanoma.
The test system of test [18] is UO-31 renal.

`COC(=O)c1ccccc1/C=C1\Cc2c(ccc3c2CCC3)C1=O`: the TGI in test [1], in test [2], in [3], in [4], in test [5] and in test [6] was above 100 µM in each case. For the same molecule, the TGI in test [7], in [8], in [9], in test [10], in test [11] and in [12] was above 100 µM in each case. The TGI in test [13], in test [14], in [15], in [16], in test [17] and in [18] was above 100 µM in each case.

Take `CC1=NN(c2ccccc2)C2(C1)C(Cl)C(=O)N2c1nc2ccccc2s1` (centres undefined): the TGI was 48.8 µM in test [1]; above 100 µM in [2]; 82.6 µM in test [3]; above 100 µM in test [4]; above 100 µM in [5]; 78.6 µM in [6]. Further, the TGI is 85.7 µM in test [7]; 77.6 µM in test [8]; above 100 µM in test [9]; above 100 µM in test [10]; 78.1 µM in [11]; above 100 µM in [12]. Also, the TGI in test [13] was above 100 µM; in [14] it was above 100 µM; in test [15], 80 µM; in test [16], above 100 µM; in test [17] it was above 100 µM; in test [18], above 100 µM.

As for `Cc1cn(C2OC(CO[Si](C)(C)C(C)(C)C)/C(=C\C#N)C2O[Si](C)(C)C(C)(C)C)c(=O)[nH]c1=O` (centres undefined), the TGI in [1], in test [2], in test [3], in test [4], in test [5] and in [6] was above 100 µM in each case. Also, the TGI in [7] is above 100 µM; in test [8], above 100 µM; in [9], above 100 µM; in test [10], 83.5 µM; in [11] it was 37.1 µM; in test [12], above 100 µM. Further, the TGI in test [13], in test [14], in [15], in [16], in test [17] and in test [18] was above 100 µM each time.
